Laboratory results as given in PubChem BioAssay AID248 (DTP/NCI, 2004).
Values joined by “and” are separate entries in the source; they are usually repeats but may differ in a detail not shown here. Identical values can stand only once. Inconclusive results and toxic doses are left out. Cut-off read from the data, not from the text of the source: active = T/C of 150% or more; inactive = T/C below 125%.

Test system: L1210 leukemia ip in BDF1 mice, survival T/C
Assay: NCI In Vivo Anticancer Drug Screen. Data for tumor model L1210 Leukemia (intraperitoneal) in B6D2F1 (BDF1) mice
Conditions: endpoint: mean survival time, higher = longer survival
Method in brief: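 In this screen, tumor-bearing mice given compound are compared to those given vehicle, and their survival values are reported as a treated-to-control quotient.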

[1] = dose: 100.0 mg/kg/injection, schedule: Q01DX001 (ip), vehicle: carboxymethylcellulose (CMC)
[2] = dose: 200.0 mg/kg/injection, schedule: Q01DX001 (ip), vehicle: carboxymethylcellulose (CMC)
[3] = dose: 400.0 mg/kg/injection, schedule: Q01DX001 (ip), vehicle: carboxymethylcellulose (CMC)
[4] = dose: 50.0 mg/kg/injection, schedule: Q01DX009 (ip), vehicle: saline with Tween-80
[5] = dose: 100.0 mg/kg/injection, schedule: Q01DX001 (ip), vehicle: saline with Tween-80
[6] = dose: 100.0 mg/kg/injection, schedule: Q01DX009 (ip), vehicle: saline with Tween-80
[7] = dose: 200.0 mg/kg/injection, schedule: Q01DX001 (ip), vehicle: saline with Tween-80
[8] = dose: 400.0 mg/kg/injection, schedule: Q01DX001 (ip), vehicle: saline with Tween-80
[9] = dose: 100.0 mg/kg/injection, schedule: Q01DX001 (ip), vehicle: Klucel (hydroxypropylcellulose) (HPC)
[10] = dose: 200.0 mg/kg/injection, schedule: Q01DX001 (ip), vehicle: Klucel (hydroxypropylcellulose) (HPC)
[11] = dose: 100.0 mg/kg/injection, schedule: Q01DX001 (ip), vehicle: saline
[12] = dose: 200.0 mg/kg/injection, schedule: Q01DX001 (ip), vehicle: saline
[13] = dose: 400.0 mg/kg/injection, schedule: Q01DX001 (ip), vehicle: saline
[14] = dose: 25.0 mg/kg/injection, schedule: Q01DX001 (ip), vehicle: saline
[15] = dose: 50.0 mg/kg/injection, schedule: Q01DX001 (ip), vehicle: saline
[16] = dose: 100.0 mg/kg/injection, schedule: Q04DX003 (ip), vehicle: saline with Tween-80
[17] = dose: 200.0 mg/kg/injection, schedule: Q04DX003 (ip), vehicle: saline with Tween-80
[18] = dose: 400.0 mg/kg/injection, schedule: Q04DX003 (ip), vehicle: saline with Tween-80

Measured: T/C

CCCCNC(=O)c1ncccc1C(=O)O
inactive: [1] 111 % of control | dose: 100.0 mg/kg/injection, schedule: Q04DX003 (ip), vehicle: carboxymethylcellulose (CMC) 102 % of control | [2] 103 % of control | dose: 200.0 mg/kg/injection, schedule: Q04DX003 (ip), vehicle: carboxymethylcellulose (CMC) 95 % of control | [3] 97 % of control

COc1c(C)c(C)c(OC(C)=O)c(C)c1COC(C)=O
inactive: dose: 25.0 mg/kg/injection, schedule: Q01DX009 (ip), vehicle: saline with Tween-80 90 % of control | [4] 95 % of control | [5] 98 % of control | [6] 95 % of control and 98 % of control | [7] 93 % of control | [8] 109 % of control

CCCCCCCCCCCCCCCCCC(=O)Oc1c(C(C)(C)C)cc([N+](=O)[O-])c(C)c1[N+](=O)[O-]
inactive: dose: 100.0 mg/kg/injection, schedule: Q04DX002 (ip), vehicle: Klucel (hydroxypropylcellulose) (HPC) 92 % of control | dose: 200.0 mg/kg/injection, schedule: Q04DX002 (ip), vehicle: Klucel (hydroxypropylcellulose) (HPC) 92 % of control | dose: 400.0 mg/kg/injection, schedule: Q04DX002 (ip), vehicle: Klucel (hydroxypropylcellulose) (HPC) 96 % of control

N#Cc1ccccc1CNc1ccccc1
inactive: [9] 94 % of control | [10] 96 % of control | dose: 400.0 mg/kg/injection, schedule: Q01DX001 (ip), vehicle: Klucel (hydroxypropylcellulose) (HPC) 96 % of control

O=C(O)C1CCC(C(=O)O)CC1 (stereo not drawn)
inactive: dose: 50.0 mg/kg/injection, schedule: Q01DX001 (ip), vehicle: carboxymethylcellulose (CMC) 101 % of control | [1] 88 % of control | [3] 98 % of control

CN(/N=N/c1nc[nH]c1C(=O)NN)C1CCCCC1
inactive: dose: 50.0 mg/kg/injection, schedule: Q01DX001 (ip), vehicle: other 95 % of control | dose: 100.0 mg/kg/injection, schedule: Q01DX001 (ip), vehicle: other 101 % of control | dose: 200.0 mg/kg/injection, schedule: Q01DX001 (ip), vehicle: other 98 % of control

CCC1=C(C)C(=O)Nc2c3ncnc-3ncn2C1O (stereo not drawn)
inactive: [5] 100 % of control | [7] 105 % of control | [8] 103 % of control

C=C/C=C/CC=C
inactive: [11] 107 % of control | [12] 107 % of control | [13] 109 % of control

CCC1(O)C(=O)OCc2c1ccn(Cc1ccc3ccccc3c1)c2=O (stereo not drawn)
inactive: [14] 92 % of control | [15] 97 % of control | [11] 96 % of control | [12] 94 % of control

CP1(=O)CCC(=O)C1Br (stereo not drawn)
inactive: dose: 50.0 mg/kg/injection, schedule: Q04DX002 (ip), vehicle: saline with Tween-80 98 % of control | dose: 100.0 mg/kg/injection, schedule: Q04DX002 (ip), vehicle: saline with Tween-80 95 % of control | dose: 200.0 mg/kg/injection, schedule: Q04DX002 (ip), vehicle: saline with Tween-80 91 % of control

CC1(C)N=C(N)N=C(N)N1c1ccc(/C=C/C(=O)Nc2ccc(S(=O)(=O)F)cc2)cc1
inactive: dose: 75.0 mg/kg/injection, schedule: Q01DX001 (ip), vehicle: Klucel (hydroxypropylcellulose) (HPC) 97 % of control | dose: 150.0 mg/kg/injection, schedule: Q01DX001 (ip), vehicle: Klucel (hydroxypropylcellulose) (HPC) 92 % of control

O=C(COc1ccc(Cl)c(Cl)c1)NCCc1cc[n+](Cc2ccc(Cl)c(S(=O)(=O)F)c2)cc1
inactive: [9] 96 % of control | [10] 94 % of control

C=CCN1CCCCC1C1(c2ccccc2)CCCC1 (stereo not drawn)
inactive: dose: 75.0 mg/kg/injection, schedule: Q01DX001 (ip), vehicle: acid diluted with saline 92 % of control

CC1(C)NC(=O)NC(=O)C1Br (stereo not drawn)
inactive: dose: 100.0 mg/kg/injection, schedule: Q01DX Z (ip), vehicle: methylcellulose (MC) 96 % of control

COc1ccc(C(C)S(=O)(=O)c2ccc(C)cc2)cc1OC (stereo not drawn)
inactive: [1] 97 % of control | [2] 97 % of control | [3] 94 % of control

S=P(Oc1ccccc1)(N1CC1)N1CC1
inactive: dose: 25.0 mg/kg/injection, schedule: Q01DX009 (ip), vehicle: acetone 98 % of control | dose: 50.0 mg/kg/injection, schedule: Q01DX009 (ip), vehicle: acetone 98 % of control | dose: 50.0 mg/kg/injection, schedule: Q04DX003 (ip), vehicle: saline 100 % of control | [11] 87 % of control | dose: 100.0 mg/kg/injection, schedule: Q01DX009 (ip), vehicle: acetone 93 % of control | dose: 100.0 mg/kg/injection, schedule: Q04DX003 (ip), vehicle: saline 92 % of control | dose: 150.0 mg/kg/injection, schedule: Q01DX009 (ip), vehicle: saline 87 % of control | [12] 94 % of control | dose: 225.0 mg/kg/injection, schedule: Q01DX009 (ip), vehicle: saline 87 % of control

S=c1nc[nH]c2c1[nH]c(=S)n2CCc1cnc[nH]1
inactive: dose: 24.0 mg/kg/injection, schedule: Q01DX009 (ip), vehicle: steriod suspending solution 98 % of control | dose: 39.0 mg/kg/injection, schedule: Q01DX009 (ip), vehicle: steriod suspending solution 100 % of control | dose: 65.0 mg/kg/injection, schedule: Q01DX009 (ip), vehicle: steriod suspending solution 102 % of control | dose: 108.0 mg/kg/injection, schedule: Q01DX009 (ip), vehicle: steriod suspending solution 88 % of control | dose: 400.0 mg/kg/injection, schedule: Q01DX001 (ip), vehicle: steriod suspending solution 94 % of control

Clc1ccc(N=Nc2ccccc2)cc1
inactive: dose: 100.0 mg/kg/injection, schedule: Q01DX009 (ip), vehicle: Klucel (hydroxypropylcellulose) (HPC) 98 % of control | dose: 100.0 mg/kg/injection, schedule: Q04DX003 (ip), vehicle: Klucel (hydroxypropylcellulose) (HPC) 95 % of control | dose: 200.0 mg/kg/injection, schedule: Q01DX009 (ip), vehicle: Klucel (hydroxypropylcellulose) (HPC) 91 % of control | dose: 200.0 mg/kg/injection, schedule: Q04DX003 (ip), vehicle: Klucel (hydroxypropylcellulose) (HPC) 101 % of control | dose: 400.0 mg/kg/injection, schedule: Q01DX009 (ip), vehicle: Klucel (hydroxypropylcellulose) (HPC) 96 % of control | dose: 400.0 mg/kg/injection, schedule: Q04DX003 (ip), vehicle: Klucel (hydroxypropylcellulose) (HPC) 105 % of control

CCCCCCOC(=O)C(O)c1ccccc1 (stereo not drawn)
inactive: [4] 95 % of control | [6] 98 % of control | dose: 200.0 mg/kg/injection, schedule: Q01DX009 (ip), vehicle: saline with Tween-80 95 % of control

CC(C)CC(NC(=O)CNC(=O)CNC(=O)OCc1ccccc1)C(=O)O (stereo not drawn)
inactive: [16] 100 % of control | [17] 103 % of control | [18] 105 % of control

CCC(C)c1ccc(-c2ccc(OC)cc2)cc1 (stereo not drawn)
inactive: [16] 86 % of control | [17] 86 % of control

CCOC(=O)Cc1cn(C)c2ccccc12
inactive: [16] 93 % of control | [17] 91 % of control | [18] 96 % of control

Nc1c(Cl)ncnc1Nc1ccc(C(=O)O)cc1
inactive: [15] 96 % of control | [11] 98 % of control | [12] 96 % of control | [13] 96 % of control

CC1(C)N=C(N)N=C(N)N1c1cccc(CCCc2ccccc2)c1
inactive: dose: 1.56 mg/kg/injection, schedule: Q01DX001 (ip), vehicle: saline 98 % of control | dose: 3.12 mg/kg/injection, schedule: Q01DX001 (ip), vehicle: saline 91 % of control | dose: 6.25 mg/kg/injection, schedule: Q01DX001 (ip), vehicle: saline 88 % of control | [14] 89 % of control

COC1OC(O)C(NC(=O)C(F)(F)F)CC1O (stereo not drawn)
inactive: [15] 103 % of control | [11] 97 % of control | [12] 103 % of control | [13] 91 % of control
